From ChEMBL document CHEMBL1122963, “[3H]Batrachotoxinin A 20 alpha-benzoate binding to voltage-sensitive sodium channels: a rapid and quantitative assay for local anesthetic activity in a variety of drugs” (J Med Chem, 1985)

Assays:
[1] = target: T1, Sodium channel alpha subunits; brain (Types I, II, III) (Homo sapiens, UniProt P35498+Q99250+Q9NY46); assay: Inhibition of binding of Batrachotoxinin [3H]BTX-B to high affinity sites on voltage dependent sodium channels in a vesicular preparation from guinea pig cerebral cortex; assay type: tissue-based, Cavia porcellus
T1 sequence (Q99250 whole entry, looked up, other chains not shown): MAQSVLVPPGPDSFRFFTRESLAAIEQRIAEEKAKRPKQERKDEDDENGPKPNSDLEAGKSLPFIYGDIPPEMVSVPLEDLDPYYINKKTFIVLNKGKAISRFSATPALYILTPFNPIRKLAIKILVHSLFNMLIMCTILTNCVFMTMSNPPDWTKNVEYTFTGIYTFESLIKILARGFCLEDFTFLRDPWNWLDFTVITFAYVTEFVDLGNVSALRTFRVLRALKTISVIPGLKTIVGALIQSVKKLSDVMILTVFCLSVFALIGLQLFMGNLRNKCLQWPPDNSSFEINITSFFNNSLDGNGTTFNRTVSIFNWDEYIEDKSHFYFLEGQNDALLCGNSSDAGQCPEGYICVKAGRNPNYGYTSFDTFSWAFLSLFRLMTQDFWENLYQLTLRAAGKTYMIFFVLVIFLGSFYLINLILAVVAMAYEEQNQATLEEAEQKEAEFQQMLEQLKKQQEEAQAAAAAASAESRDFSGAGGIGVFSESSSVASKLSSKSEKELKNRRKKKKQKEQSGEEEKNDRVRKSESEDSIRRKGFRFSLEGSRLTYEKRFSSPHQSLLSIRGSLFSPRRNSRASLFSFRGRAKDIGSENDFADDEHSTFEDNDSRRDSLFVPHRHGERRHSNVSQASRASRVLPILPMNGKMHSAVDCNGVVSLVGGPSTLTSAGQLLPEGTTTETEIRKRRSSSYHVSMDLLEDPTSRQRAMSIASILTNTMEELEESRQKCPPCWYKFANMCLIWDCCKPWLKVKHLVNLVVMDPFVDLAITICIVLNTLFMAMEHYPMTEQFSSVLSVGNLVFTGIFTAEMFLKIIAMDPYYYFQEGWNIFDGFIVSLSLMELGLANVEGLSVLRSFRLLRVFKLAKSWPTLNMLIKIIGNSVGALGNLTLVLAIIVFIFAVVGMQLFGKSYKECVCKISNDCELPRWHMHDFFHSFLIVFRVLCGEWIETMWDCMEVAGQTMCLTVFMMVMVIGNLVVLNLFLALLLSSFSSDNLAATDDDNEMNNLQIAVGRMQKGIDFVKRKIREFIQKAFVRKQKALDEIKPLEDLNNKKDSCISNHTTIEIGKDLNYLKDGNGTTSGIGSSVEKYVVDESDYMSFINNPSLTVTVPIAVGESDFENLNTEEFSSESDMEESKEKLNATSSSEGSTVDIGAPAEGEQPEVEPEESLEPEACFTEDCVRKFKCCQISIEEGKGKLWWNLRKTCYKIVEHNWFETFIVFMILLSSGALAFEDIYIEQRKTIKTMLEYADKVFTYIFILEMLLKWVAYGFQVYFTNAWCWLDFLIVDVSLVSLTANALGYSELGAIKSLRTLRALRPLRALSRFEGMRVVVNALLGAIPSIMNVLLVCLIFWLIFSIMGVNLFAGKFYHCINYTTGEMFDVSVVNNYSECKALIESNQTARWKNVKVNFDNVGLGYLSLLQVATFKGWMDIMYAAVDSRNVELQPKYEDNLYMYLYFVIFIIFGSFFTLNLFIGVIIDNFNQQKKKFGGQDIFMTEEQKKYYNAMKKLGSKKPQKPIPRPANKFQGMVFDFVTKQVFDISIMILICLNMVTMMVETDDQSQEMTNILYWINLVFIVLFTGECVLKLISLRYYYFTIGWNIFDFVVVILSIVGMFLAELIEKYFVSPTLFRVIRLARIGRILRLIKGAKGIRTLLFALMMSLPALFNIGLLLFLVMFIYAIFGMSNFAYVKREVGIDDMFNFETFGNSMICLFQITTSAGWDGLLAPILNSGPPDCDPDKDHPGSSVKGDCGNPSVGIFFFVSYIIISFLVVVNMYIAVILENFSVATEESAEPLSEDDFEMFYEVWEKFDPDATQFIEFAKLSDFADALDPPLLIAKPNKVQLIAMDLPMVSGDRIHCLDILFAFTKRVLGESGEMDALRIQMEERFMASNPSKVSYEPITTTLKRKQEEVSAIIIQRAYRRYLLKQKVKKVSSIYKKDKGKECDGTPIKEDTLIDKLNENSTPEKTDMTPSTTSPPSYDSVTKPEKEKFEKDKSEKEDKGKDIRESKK
T1 sequence (Q9NY46 whole entry, looked up, other chains not shown): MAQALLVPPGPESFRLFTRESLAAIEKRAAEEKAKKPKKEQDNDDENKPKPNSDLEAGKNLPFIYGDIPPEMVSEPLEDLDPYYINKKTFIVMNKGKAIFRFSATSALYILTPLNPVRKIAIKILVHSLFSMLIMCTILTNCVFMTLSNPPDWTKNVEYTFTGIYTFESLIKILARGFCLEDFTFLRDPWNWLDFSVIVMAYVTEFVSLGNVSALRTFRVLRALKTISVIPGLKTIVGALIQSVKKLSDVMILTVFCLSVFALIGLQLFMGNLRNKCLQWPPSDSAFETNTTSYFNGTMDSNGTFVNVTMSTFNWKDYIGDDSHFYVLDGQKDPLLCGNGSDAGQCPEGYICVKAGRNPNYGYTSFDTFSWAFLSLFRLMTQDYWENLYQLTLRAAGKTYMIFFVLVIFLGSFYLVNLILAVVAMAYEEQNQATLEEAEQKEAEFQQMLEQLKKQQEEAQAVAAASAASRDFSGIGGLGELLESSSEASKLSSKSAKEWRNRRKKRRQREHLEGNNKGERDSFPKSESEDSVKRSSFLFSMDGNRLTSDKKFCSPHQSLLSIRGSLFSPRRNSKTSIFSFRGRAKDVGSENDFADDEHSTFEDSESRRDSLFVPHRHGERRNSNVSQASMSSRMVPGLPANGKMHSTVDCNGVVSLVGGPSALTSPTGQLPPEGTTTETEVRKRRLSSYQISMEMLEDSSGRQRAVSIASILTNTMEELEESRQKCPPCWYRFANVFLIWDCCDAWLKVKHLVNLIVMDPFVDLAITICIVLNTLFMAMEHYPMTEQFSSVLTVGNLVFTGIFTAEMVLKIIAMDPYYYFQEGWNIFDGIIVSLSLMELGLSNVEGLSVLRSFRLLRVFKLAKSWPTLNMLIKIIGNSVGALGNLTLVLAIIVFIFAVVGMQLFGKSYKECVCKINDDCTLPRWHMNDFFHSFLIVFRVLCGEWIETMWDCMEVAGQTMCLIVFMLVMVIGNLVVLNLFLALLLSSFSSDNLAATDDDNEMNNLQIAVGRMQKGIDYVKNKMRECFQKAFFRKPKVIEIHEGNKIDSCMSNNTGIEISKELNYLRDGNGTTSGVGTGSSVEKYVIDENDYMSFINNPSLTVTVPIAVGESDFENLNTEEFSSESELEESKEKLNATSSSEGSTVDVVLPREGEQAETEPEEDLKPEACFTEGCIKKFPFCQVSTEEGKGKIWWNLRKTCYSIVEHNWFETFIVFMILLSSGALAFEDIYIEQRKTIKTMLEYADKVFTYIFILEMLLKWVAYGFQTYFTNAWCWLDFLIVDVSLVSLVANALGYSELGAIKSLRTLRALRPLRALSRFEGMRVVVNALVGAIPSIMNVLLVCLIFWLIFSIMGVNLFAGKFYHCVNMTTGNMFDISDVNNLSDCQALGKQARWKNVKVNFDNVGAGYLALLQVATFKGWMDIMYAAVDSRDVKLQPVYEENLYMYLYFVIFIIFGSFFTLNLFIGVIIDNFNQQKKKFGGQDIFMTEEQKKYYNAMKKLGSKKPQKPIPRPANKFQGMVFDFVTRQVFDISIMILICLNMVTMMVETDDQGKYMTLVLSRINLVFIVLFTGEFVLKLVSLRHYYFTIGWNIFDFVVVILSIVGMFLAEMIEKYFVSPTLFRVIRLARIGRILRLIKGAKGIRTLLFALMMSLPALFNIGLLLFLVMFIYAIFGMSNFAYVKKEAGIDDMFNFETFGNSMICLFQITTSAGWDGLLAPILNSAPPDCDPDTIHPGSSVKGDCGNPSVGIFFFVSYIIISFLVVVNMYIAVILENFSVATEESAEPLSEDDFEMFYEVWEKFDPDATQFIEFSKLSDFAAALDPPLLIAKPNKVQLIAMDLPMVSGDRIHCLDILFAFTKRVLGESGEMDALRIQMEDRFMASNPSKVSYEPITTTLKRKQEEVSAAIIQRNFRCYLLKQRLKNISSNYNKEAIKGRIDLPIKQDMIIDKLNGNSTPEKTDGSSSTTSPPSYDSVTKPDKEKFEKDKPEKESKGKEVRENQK

[2] = target: T1, Sodium channel alpha subunits; brain (Types I, II, III); settings: Cavia porcellus; Cerebral cortex; at 10 µM

CN(C)CCC=C1c2ccccc2CCc2ccccc21 [AMITRIPTYLINE]
IC50 [1]: < 10 µM
inhibition [2]: 73.8%

O=C(Nc1ccccc1)OCC(CN1CCCCC1)OC(=O)Nc1ccccc1 (stereo not drawn) [DIPERODON]
IC50 [1]: 1.3 µM
inhibition [2]: 87.8%

COC(=O)[C@H]1[C@H]2C[C@@H]3c4[nH]c5cc(OC)ccc5c4CCN3C[C@H]2C[C@@H](OC(=O)c2cc(OC)c(OC)c(OC)c2)[C@@H]1OC [RESERPINE]
IC50 [1]: 1.6 µM
inhibition [2]: 100%

COc1cccc(OC)c1OCCNCC1=COc2ccccc2O1
IC50 [1]: 2.4 µM
inhibition [2]: 67.7%

CCCC(C(=O)OCC[N+](C)(CC)CC)(c1ccccc1)c1ccccc1.[I-]
IC50 [1]: 4.2 µM
inhibition [2]: 72%

CNCCCC1c2ccccc2C=Cc2ccccc21 [PROTRIPTYLINE]
IC50 [1]: < 10 µM
inhibition [2]: 70.3%

CCN(CC)CCOC(=O)C1(C2CCCCC2)CCCCC1 [DICYCLOMINE]
IC50 [1]: 28 µM
inhibition [2]: 75%

CN(C)CCC(c1ccccc1)c1ccccn1 (stereo not drawn) [PHENIRAMINE]
IC50 [1]: 33 µM
inhibition [2]: 24.9%

OCCN1CCN(CCCN2c3ccccc3Sc3ccc(C(F)(F)F)cc32)CC1 [FLUPHENAZINE]
IC50 [1]: 3.7 µM
inhibition [2]: 72.8%

OC(c1ccccc1)(c1ccccc1)C1CCNCC1 [AZACYCLONOL]
IC50 [1]: 14 µM
inhibition [2]: 43.2%

CN(C)CCCN1c2ccccc2CCc2ccc(Cl)cc21 [CLOMIPRAMINE]
IC50 [1]: < 10 µM
inhibition [2]: 76.6%

OCCOCCN1CCN(C(c2ccccc2)c2ccc(Cl)cc2)CC1 (stereo not drawn) [HYDROXYZINE]
IC50 [1]: < 10 µM
inhibition [2]: 73.9%

CC(C)NC[C@H](O)COc1cccc2ccccc12 [LEVOPROPRANOLOL]
IC50 [1]: 13 µM
inhibition [2]: 42.6%

CSc1ccc2c(c1)N(CCC1CCCCN1C)c1ccccc1S2 (stereo not drawn) [THIORIDAZINE]
IC50 [1]: 6.5 µM
inhibition [2]: 63.5%

COC(=O)[C@@H]1[C@H]2C[C@H]3c4[nH]c5ccccc5c4CCN3C[C@@H]2CC[C@@H]1O [YOHIMBINE]
IC50 [1]: 33 µM
inhibition [2]: 25.6%

CN1CC[C@@]23CCCC[C@@H]2[C@@H]1Cc1ccc(O)cc13 [DEXTRORPHAN]
IC50 [1]: 18 µM
inhibition [2]: 38.2%

Cc1ccc(N(CC2=NCCN2)c2cccc(O)c2)cc1 [PHENTOLAMINE]
IC50 [1]: 8.4 µM
inhibition [2]: 54.6%

COc1cc(C(=O)OCCCN2CCCN(CCCOC(=O)c3cc(OC)c(OC)c(OC)c3)CC2)cc(OC)c1OC [DILAZEP]
IC50 [1]: 0.6 µM
inhibition [2]: 99.3%

OC(CCN1CCCCC1)(c1ccccc1)C1CC2C=CC1C2 (stereo not drawn) [BIPERIDEN]
IC50 [1]: < 10 µM
inhibition [2]: 62.9%

CN(C)CCCN1c2ccccc2CCc2ccccc21 [IMIPRAMINE]
IC50 [1]: 3.6 µM
inhibition [2]: 72.7%

O=C1C[C@@H]2OCC=C3CN4CC[C@]56c7ccccc7N1[C@H]5[C@H]2[C@H]3C[C@H]46 [STRYCHNINE]
IC50 [1]: 21 µM
inhibition [2]: 35.7%

C=C(c1ccc(Oc2cccc3ccccc23)cc1)C1COC2(CCCCC2)OO1.Cl (stereo not drawn)
IC50 [1]: 7 µM
inhibition [2]: 68.3%

CC(C)NC[C@@H](O)COc1cccc2ccccc12 [DEXPROPRANOLOL]
IC50 [1]: 10 µM
inhibition [2]: 50%

CC(C)NCC(O)c1ccc(Cl)c(Cl)c1 (stereo not drawn) [DICHLOROISOPROTERENOL]
IC50 [1]: < 10 µM
inhibition [2]: 53%

CC1CCCCN1CCCOC(=O)c1ccccc1 (stereo not drawn) [PIPEROCAINE]
IC50 [1]: 13 µM
inhibition [2]: 43.6%

Cc1ccc(OCC(O)C(C)NC(C)C)c2c1CCC2 (stereo not drawn) [ZENIDOLOL]
IC50 [1]: < 10 µM
inhibition [2]: 64.2%

CN(C)C(=O)C(CCN1CCC(O)(c2ccc(Cl)cc2)CC1)(c1ccccc1)c1ccccc1 [LOPERAMIDE]
IC50 [1]: 0.27 µM
inhibition [2]: 100%

CCCCOc1cc(C(=O)OCCN(CC)CC)ccc1N [BENOXINATE]
IC50 [1]: 2.9 µM
inhibition [2]: 73.4%

C[N+](C)(C)CCOC(c1ccccc1)c1ccccc1.[I-]
IC50 [1]: 64 µM
inhibition [2]: 69%

CCCCN(CCCC)CCCOC(=O)c1ccc(N)cc1 [BUTACAINE]
IC50 [1]: 2.7 µM
inhibition [2]: 75.3%

CN(C)CC/C=C1/c2ccccc2Sc2ccc(Cl)cc21 [CHLORPROTHIXENE]
IC50 [1]: < 10 µM
inhibition [2]: 55.2%

CN(C)CCCN1c2ccccc2Sc2ccc(Cl)cc21 [CHLORPROMAZINE]
IC50 [1]: 4.3 µM
inhibition [2]: 72.2%

CC(CNC1CCCCC1)OC(=O)c1ccccc1 (stereo not drawn) [HEXYLCAINE]
IC50 [1]: 7 µM
inhibition [2]: 54.9%

COC(=O)C1=C(C)NC(C)=C(C(=O)OCC(C)C)C1c1ccccc1[N+](=O)[O-] (stereo not drawn) [NISOLDIPINE]
IC50 [1]: 26 µM
inhibition [2]: 25.9%

CN(C(=O)CN(CCO)CC(=O)N(C)C(C)(C)Cc1ccccc1)C(C)(C)Cc1ccccc1 [OXETHAZAINE]
IC50 [1]: 2.3 µM
inhibition [2]: 83.9%

CCOc1ccc(/N=C(\C)Nc2ccc(OCC)cc2)cc1 [PHENACAINE]
IC50 [1]: 1.7 µM
inhibition [2]: 81.1%

COc1ccc(CCN(C)CCCC(C#N)(c2cc(OC)c(OC)c(OC)c2)C(C)C)cc1OC (stereo not drawn) [GALLOPAMIL]
IC50 [1]: 3.6 µM
inhibition [2]: 67.1%

CN(C)CCC(c1ccc(Cl)cc1)c1ccccn1 (stereo not drawn) [CHLORPHENIRAMINE]
IC50 [1]: 10 µM
inhibition [2]: 49.7%

CC(C)(C)NCC(CO)O/N=C1\c2ccccc2C2C=CC=CC12 (stereo not drawn)
IC50 [1]: 3.7 µM
inhibition [2]: 72.5%

CC(C)COCC(CN(Cc1ccccc1)c1ccccc1)N1CCCC1 (stereo not drawn) [BEPRIDIL]
IC50 [1]: 0.84 µM
inhibition [2]: 96.2%

CC(Cc1ccccc1)NCCC(c1ccccc1)c1ccccc1 (stereo not drawn) [PRENYLAMINE]
IC50 [1]: 0.3 µM
inhibition [2]: 98.8%

C=C(C)[C@@H]1[C@H]2OC(=O)[C@@H]1[C@]1(O)C[C@H]3OC34C(=O)O[C@H]2[C@@]41C.CC(C)(O)[C@@H]1[C@H]2OC(=O)[C@@H]1[C@]1(O)C[C@H]3OC34C(=O)O[C@H]2[C@@]41C (stereo partly drawn) [PICROTOXIN]
IC50 [1]: 700 µM
inhibition [2]: 22.7%

CCOC(=O)C1=C(C)NC(C)=C(C(=O)OC)C1c1cccc([N+](=O)[O-])c1 (stereo not drawn) [NITRENDIPINE]
IC50 [1]: 36 µM
inhibition [2]: 23.1%

Cn1c(=O)c2c(ncn2C)n(C)c1=O [CAFFEINE]
IC50 [1]: 660 µM
inhibition [2]: 9.7%

Cl.NCCCCCCNS(=O)(=O)c1cccc2c(Cl)cccc12 [N-AMINOHEXYL-5-CHLORO-1-NAPTHALENESULFONAMIDE HYDROCHLORIDE]
IC50 [1]: 12 µM
inhibition [2]: 46.8%

CCCCC1=C(N(C)C)c2cc3c(cc2C1)OCO3
IC50 [1]: 12.5 µM
inhibition [2]: 45%

Cl.NCCCCCCNS(=O)(=O)c1cccc2ccccc12
IC50 [1]: 22 µM
inhibition [2]: 33.3%

CN(C)CCC=C1c2ccccc2COc2ccccc21 [DOXEPIN]
IC50 [1]: < 10 µM
inhibition [2]: 67.7%

CN(C)C(=O)C(CCN1CCC(O)(c2ccc(Cl)c(C(F)(F)F)c2)CC1)(c1ccccc1)c1ccccc1 [FLUPERAMIDE]
IC50 [1]: 0.28 µM
inhibition [2]: 100%

OC(CCCN1CCCCC1)(c1ccccc1)c1ccccc1 [DIPHENIDOL]
IC50 [1]: 3.4 µM
inhibition [2]: 65.1%

CNCCC=C1c2ccccc2CCc2ccccc21 [NORTRIPTYLINE]
IC50 [1]: < 10 µM
inhibition [2]: 69.4%

CC(CN1c2ccccc2Sc2ccccc21)N(C)C (stereo not drawn) [PROMETHAZINE]
IC50 [1]: 6.9 µM
inhibition [2]: 61%

CNCCCN1c2ccccc2CCc2ccccc21 [DESIPRAMINE]
IC50 [1]: 2.4 µM
inhibition [2]: 80.3%

CCN(CC)CCOC(=O)c1ccc(N)cc1 [PROCAINE]
IC50 [1]: 110 µM
inhibition [2]: 47.3%

CCCCc1cc2ccccc2c(OCCN(C)C)n1 [DIMETHISOQUIN]
IC50 [1]: 3.4 µM
inhibition [2]: 73.4%

CCCNC(C)(C)COC(=O)c1ccccc1 [MEPRYLCAINE]
IC50 [1]: 7.6 µM
inhibition [2]: 57.6%

CN1CC[C@]23CCCC[C@H]2[C@H]1Cc1ccc(O)cc13 [LEVORPHANOL]
IC50 [1]: 25 µM
inhibition [2]: 33%

CN(C)CCCN1c2ccccc2Sc2ccccc21 [PROMAZINE]
IC50 [1]: 5.4 µM
inhibition [2]: 65.3%

COc1cc(C(=O)OCCCN(C)CCN(C)CCCOC(=O)c2cc(OC)c(OC)c(OC)c2)cc(OC)c1OC [HEXOBENDINE]
IC50 [1]: 1.4 µM
inhibition [2]: 77.2%
